According to publication PMC9864331, “Biosynthesis of α-Bisabolol by Farnesyl Diphosphate Synthase and α-Bisabolol Synthase and Their Related Transcription Factors in Matricaria recutita L” (International Journal of Molecular Sciences, 2023):

Biological target: T1, MrBBS (Matricaria chamomilla, UniProt A0A0A0RIB3)
T1 construct: pCold TF (trigger factor) fusion, E. coli BL21(DE3) pLysS; assayed as crude enzyme
T1 sequence (A0A0A0RIB3 1-572): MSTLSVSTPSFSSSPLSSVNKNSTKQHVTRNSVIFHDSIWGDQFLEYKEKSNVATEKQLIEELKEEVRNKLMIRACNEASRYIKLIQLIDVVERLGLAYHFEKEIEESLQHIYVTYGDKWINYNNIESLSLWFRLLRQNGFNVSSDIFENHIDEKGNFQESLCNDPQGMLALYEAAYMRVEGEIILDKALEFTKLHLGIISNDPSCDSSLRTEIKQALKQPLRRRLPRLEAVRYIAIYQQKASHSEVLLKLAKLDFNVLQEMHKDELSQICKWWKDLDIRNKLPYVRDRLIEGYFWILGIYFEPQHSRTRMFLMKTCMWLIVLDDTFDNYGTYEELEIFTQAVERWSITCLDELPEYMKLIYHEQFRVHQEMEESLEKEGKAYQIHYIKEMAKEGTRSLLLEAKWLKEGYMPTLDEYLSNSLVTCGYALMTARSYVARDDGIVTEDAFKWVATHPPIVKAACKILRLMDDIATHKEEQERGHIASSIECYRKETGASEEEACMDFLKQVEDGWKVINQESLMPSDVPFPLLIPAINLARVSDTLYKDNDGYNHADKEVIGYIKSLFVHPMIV
Assay: GC-MS of hexane-extracted products
Assay type: biochemical
Conditions: 100 µM FPP; 50 mM Tris-HCl pH 7.5; 10 mM MgCl2; 20 µg crude enzyme; product alpha-bisabolol

## CC(C)=CCC/C(C)=C/CC/C(C)=C/COP(=O)(O)OP(=O)(O)O [FPP]
  GC-MS of hexane-extracted products: MrBBS catalyzed the conversion of FPP into α-bisabolol
